According to the NIST ThermoML archive (doi:10.1016/j.jct.2019.02.011):

Assay: xn = mol fraction of the nth substance listed
Details: Liquid, Vibrating tube method

COC(=O)OC [dimethyl carbonate] + CO
mass density [kg/m3]
Details | 100 kPa | 5000 kPa | 10000 kPa | 15000 kPa | 20000 kPa | 25000 kPa | 30000 kPa | 35000 kPa | 40000 kPa
303.15 K, x1 = 0.0253 | – | – | – | – | – | – | – | 825.6 | 829
303.15 K, x1 = 0.0503 | – | – | – | – | – | – | – | 839.12 | 842.54
303.15 K, x1 = 0.0745 | – | – | – | – | – | – | – | 851.58 | 855.01
303.15 K, x1 = 0.101 | – | – | – | – | – | – | – | 864.54 | 867.99
303.15 K, x1 = 0.1502 | – | – | – | – | – | – | – | 886.72 | 890.21
303.15 K, x1 = 0.2059 | – | – | – | – | – | – | – | 909.73 | 913.3
303.15 K, x1 = 0.25 | – | – | – | – | – | – | – | 926.34 | 929.93
303.15 K, x1 = 0.3004 | – | – | – | – | – | – | – | 943.76 | 947.37
303.15 K, x1 = 0.3426 | – | – | – | – | – | – | – | 957.21 | 960.84
303.15 K, x1 = 0.3984 | – | – | – | – | – | – | – | 973.63 | 977.28
303.15 K, x1 = 0.4514 | – | – | – | – | – | – | – | 987.95 | 991.62
303.15 K, x1 = 0.5054 | – | – | – | – | – | – | – | 1001.4 | 1005.09
303.15 K, x1 = 0.5509 | – | – | – | – | – | – | – | 1011.94 | 1015.64
303.15 K, x1 = 0.6002 | – | – | – | – | – | – | – | 1022.49 | 1026.2
303.15 K, x1 = 0.6469 | – | – | – | – | – | – | – | 1031.7 | 1035.43
303.15 K, x1 = 0.6993 | – | – | – | – | – | – | – | 1041.37 | 1045.11
303.15 K, x1 = 0.7496 | – | – | – | – | – | – | – | 1050.01 | 1053.76
303.15 K, x1 = 0.799 | – | – | – | – | – | – | – | 1058.05 | 1061.82
303.15 K, x1 = 0.837 | – | – | – | – | – | – | 1060.13 | 1063.82 | 1067.59
303.15 K, x1 = 0.9093 | – | – | – | – | – | – | 1070.62 | 1074.26 | 1078.04
303.15 K, x1 = 0.9239 | – | – | – | – | – | – | 1072.65 | 1076.3 | 1080.08
303.15 K, x1 = 0.9575 | – | – | – | – | – | – | 1077.23 | 1080.88 | 1084.67
303.15 K, x1 = 0.9861 | – | – | – | – | – | – | 1081.06 | 1084.71 | 1088.51
303.15 K, x1 = 1 | – | – | – | – | – | – | 1082.9 | 1086.6 | 1090.4
308.15 K, x1 = 0.0253 | 791.22 | 795.98 | 800.77 | 805.37 | 809.72 | 814 | 817.9 | 821.58 | 825.25
308.15 K, x1 = 0.0503 | 804.54 | 809.3 | 814.1 | 818.7 | 823.06 | 827.34 | 831.25 | 834.92 | 838.6
308.15 K, x1 = 0.0745 | 816.8 | 821.56 | 826.37 | 831.02 | 835.38 | 839.68 | 843.59 | 847.26 | 850.9
308.15 K, x1 = 0.101 | 829.61 | 834.41 | 839.23 | 843.89 | 848.26 | 852.56 | 856.52 | 860.19 | 863.84
308.15 K, x1 = 0.1502 | 851.5 | 856.36 | 861.2 | 865.86 | 870.28 | 874.59 | 878.57 | 882.29 | 885.94
308.15 K, x1 = 0.2059 | 874.17 | 879.02 | 883.88 | 888.55 | 892.98 | 897.3 | 901.3 | 905.01 | 908.67
308.15 K, x1 = 0.25 | 890.57 | 895.46 | 900.33 | 905.01 | 909.44 | 913.77 | 917.78 | 921.49 | 925.16
308.15 K, x1 = 0.3004 | 907.81 | 912.71 | 917.59 | 922.27 | 926.71 | 931.05 | 935.06 | 938.77 | 942.45
308.15 K, x1 = 0.3426 | 921.16 | 926.05 | 930.95 | 935.63 | 940.07 | 944.37 | 948.39 | 952.1 | 955.78
308.15 K, x1 = 0.3984 | 937.46 | 942.41 | 947.31 | 952 | 956.44 | 960.75 | 964.78 | 968.49 | 972.13
308.15 K, x1 = 0.4514 | 951.72 | 956.66 | 961.58 | 966.27 | 970.72 | 975.04 | 979.08 | 982.78 | 986.43
308.15 K, x1 = 0.5054 | 965.11 | 970.05 | 974.93 | 979.62 | 984.08 | 988.4 | 992.45 | 996.15 | 999.81
308.15 K, x1 = 0.5509 | 975.56 | 980.5 | 985.39 | 990.08 | 994.54 | 998.87 | 1002.92 | 1006.62 | 1010.28
308.15 K, x1 = 0.6002 | 986.01 | 990.95 | 995.85 | 1000.49 | 1004.95 | 1009.29 | 1013.4 | 1017.09 | 1020.76
308.15 K, x1 = 0.6469 | 995.19 | 1000.13 | 1005.03 | 1009.68 | 1014.14 | 1018.48 | 1022.55 | 1026.24 | 1029.87
308.15 K, x1 = 0.6993 | 1004.82 | 1009.76 | 1014.62 | 1019.27 | 1023.74 | 1028.03 | 1032.11 | 1035.8 | 1039.42
308.15 K, x1 = 0.7496 | 1013.47 | 1018.4 | 1023.27 | 1027.93 | 1032.35 | 1036.65 | 1040.72 | 1044.41 | 1048.05
308.15 K, x1 = 0.799 | 1021.43 | 1026.37 | 1031.19 | 1035.85 | 1040.27 | 1044.57 | 1048.66 | 1052.34 | 1055.98
308.15 K, x1 = 0.837 | 1027.27 | 1032.2 | 1037.04 | 1041.64 | 1046.06 | 1050.37 | 1054.46 | 1058.14 | 1061.73
308.15 K, x1 = 0.9093 | 1037.72 | 1042.65 | 1047.49 | 1052.1 | 1056.52 | 1060.79 | 1064.88 | 1068.56 | 1072.16
308.15 K, x1 = 0.9239 | 1039.75 | 1044.68 | 1049.52 | 1054.13 | 1058.56 | 1062.82 | 1066.87 | 1070.55 | 1074.15
308.15 K, x1 = 0.9575 | 1044.31 | 1049.24 | 1054.08 | 1058.69 | 1063.12 | 1067.39 | 1071.43 | 1075.12 | 1078.72
308.15 K, x1 = 0.9861 | 1048.07 | 1053 | 1057.85 | 1062.46 | 1066.89 | 1071.16 | 1075.26 | 1078.94 | 1082.54
308.15 K, x1 = 1 | 1049.91 | 1054.84 | 1059.69 | 1064.3 | 1068.73 | 1073 | 1077.1 | 1080.78 | 1084.38
